In patent US9493446B2, “Orexin receptor antagonists which are [ortho bi-(hetero-)aryl]-[2-(meta bi-(hetero-)aryl)-pyrrolidin-1-yl]-methanone derivatives” (Actelion Pharmaceuticals Ltd, priority 2012, dated 2016) one finds IC50 data, which are given here for 13 compounds.

For one assay, the target named is orexin-1 (Homo sapiens (Human), UniProt O43613). The assay can be described thus: Intracellular calcium measurement (FLIPR), CHO cells expressing human orexin-1 receptor, 3 nM orexin-A. The class given is cell-based. The following applies: read-out: IC50 OX1. The gist of the method:
(§1)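 HBSS buffer with 0.1% BSA, NaHCO3 and 20 mM HEPES carries both compounds and agonist. Dye: fluo-4 AM (3 μM) with 5 mM probenecid. Compound exposure 120 min; peak signal scored against uninhibited orexin-A response.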
For orientation: Calcium assays in cells follow changes in intracellular calcium, usually with a dye or a luminescent sensor.

The next assay concerns the target human orexin-2 receptor (Homo sapiens (Human), UniProt O43614). The assay can be described thus: Intracellular calcium measurement (FLIPR), CHO cells expressing human orexin-2 receptor, 3 nM orexin-A. The class given is cell-based. The note with it: CHO cells expressing human orexin-2 receptor, FLIPR, 3 nM orexin-A; geometric mean if determined several times; read-out: IC50 OX2. The procedure, abridged:
as §1

The mark [1] stands for this setting: CHO cells expressing human orexin-1 receptor, FLIPR, 3 nM orexin-A, geometric mean if determined several times.

Like-named read-outs stand apart in the source and are kept apart here.

Sequence of orexin-1 (O43613 whole entry): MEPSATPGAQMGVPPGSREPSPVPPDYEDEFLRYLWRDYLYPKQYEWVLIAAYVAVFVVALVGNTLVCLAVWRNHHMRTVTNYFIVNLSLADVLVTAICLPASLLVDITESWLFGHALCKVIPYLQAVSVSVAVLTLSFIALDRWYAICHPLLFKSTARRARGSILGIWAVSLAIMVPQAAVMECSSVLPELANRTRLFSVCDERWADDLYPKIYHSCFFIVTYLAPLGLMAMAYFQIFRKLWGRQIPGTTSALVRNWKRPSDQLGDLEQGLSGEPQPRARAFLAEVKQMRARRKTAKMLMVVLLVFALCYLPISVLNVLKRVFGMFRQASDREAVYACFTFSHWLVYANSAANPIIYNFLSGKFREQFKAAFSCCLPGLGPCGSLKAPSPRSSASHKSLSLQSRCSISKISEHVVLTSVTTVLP
Sequence of human orexin-2 receptor (O43614 whole entry): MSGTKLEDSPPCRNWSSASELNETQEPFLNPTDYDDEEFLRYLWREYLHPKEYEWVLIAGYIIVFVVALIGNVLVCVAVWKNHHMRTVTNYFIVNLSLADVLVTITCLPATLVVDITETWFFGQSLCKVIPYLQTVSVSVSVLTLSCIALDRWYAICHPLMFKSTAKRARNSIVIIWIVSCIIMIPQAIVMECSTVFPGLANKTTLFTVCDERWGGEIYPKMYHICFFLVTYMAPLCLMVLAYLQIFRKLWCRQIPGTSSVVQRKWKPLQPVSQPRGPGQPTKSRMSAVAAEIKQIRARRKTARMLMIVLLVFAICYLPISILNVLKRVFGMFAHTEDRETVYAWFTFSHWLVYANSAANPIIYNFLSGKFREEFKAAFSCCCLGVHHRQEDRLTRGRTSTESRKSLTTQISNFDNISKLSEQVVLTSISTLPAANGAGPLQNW

Broadly, the IC50 is the concentration that inhibits the measured activity by half. Consider `Cc1c(F)cccc1-c1noc([C@@H]2CCCN2C(=O)c2cc(C#N)ccc2-n2nccn2)n1` [compound 277, 3-{(S)-2-[3-(3-Fluoro-2-methyl-phenyl)-[1,2,4]oxadiazol-5-yl]-pyrrolidine-1-carbonyl}-4-[1,2,3]triazol-2-yl-benzonitrile], for which the concentration for half-maximal inhibition (IC50) is 1.48 µM at orexin-1 (setting [1]) and 0.297 µM at human orexin-2 receptor.

`CCOc1ncccc1-c1noc([C@@H]2CCCN2C(=O)c2cc(C#N)ccc2-n2nccn2)n1` [compound 279, 3-{(S)-2-[3-(2-Ethoxy-pyridin-3-yl)-[1,2,4]oxadiazol-5-yl]-pyrrolidine-1-carbonyl}-4-[1,2,3]triazol-2-yl-benzonitrile]: the figures for the IC50 at orexin-1 (setting [1]) and at human orexin-2 receptor were 0.296 µM and 0.135 µM, respectively.

Take `COc1cc(C(=O)N2CCC[C@H]2c2nc(-c3cccc(Cl)c3C)no2)c(-n2nccn2)cc1Cl` [compound 280]: the IC50 at orexin-1 (setting [1]) came to 0.054 µM; at human orexin-2 receptor, 0.004 µM.

On to `COc1cc(C(=O)N2CCC[C@H]2c2nc(-c3ccccc3OC(F)(F)F)no2)c(-n2nccn2)cc1Cl` [compound 281], for which the IC50 is 0.042 µM at orexin-1 (setting [1]) and 0.017 µM on human orexin-2 receptor.

With `COc1cc(C(=O)N2CCC[C@H]2c2nc(-c3cccc(F)c3OC)no2)c(-n2nccn2)cc1Cl` [compound 282], the results for the IC50 at orexin-1 (setting [1]) and on human orexin-2 receptor were 0.044 µM and 0.001 µM, respectively.

Turning to `CCOc1c(F)cccc1-c1noc([C@@H]2CCCN2C(=O)c2cc(OC)c(Cl)cc2-n2nccn2)n1` [compound 283], the IC50 amounted to 0.034 µM at orexin-1 and 0.007 µM on human orexin-2 receptor.

Take `CCOc1ncccc1-c1noc([C@@H]2CCCN2C(=O)c2cc(OC)c(Cl)cc2-n2nccn2)n1` [compound 284]: the figures for the IC50 on orexin-1 and on human orexin-2 receptor were 0.032 µM and 0.005 µM, respectively.

In the case of `COc1cc(C(=O)N2CCC[C@H]2c2nc(-c3ccccc3OC(F)(F)F)no2)c(-c2ncccn2)cc1C` [compound 285, (5-Methoxy-4-methyl-2-pyrimidin-2-yl-phenyl)-{(S)-2-[3-(2-trifluoromethoxy-phenyl)-[1,2,4]oxadiazol-5-yl]-pyrrolidin-1-yl}-methanone], the IC50 at orexin-1 (setting [1]) was 0.09 µM; at human orexin-2 receptor it was 0.056 µM.

As to `COc1cc(C(=O)N2CCC[C@H]2c2nc(-c3cccc(F)c3OC)no2)c(-c2ncccn2)cc1C` [compound 286, {(S)-2-[3-(3-Fluoro-2-methoxy-phenyl)-[1,2,4]oxadiazol-5-yl]-pyrrolidin-1-yl}-(5-methoxy-4-methyl-2-pyrimidin-2-yl-phenyl)-methanone], the IC50 came to 0.09 µM on orexin-1 (setting [1]) and 0.006 µM on human orexin-2 receptor.

For `CCOc1ncccc1-c1noc([C@@H]2CCCN2C(=O)c2cc(OC)c(C)cc2-c2ncccn2)n1` [compound 287, {(S)-2-[3-(2-Ethoxy-pyridin-3-yl)-[1,2,4]oxadiazol-5-yl]-pyrrolidin-1-yl}-(5-methoxy-4-methyl-2-pyrimidin-2-yl-phenyl)-methanone], the figures for the IC50 on orexin-1 (setting [1]) and at human orexin-2 receptor were 0.073 µM and 0.042 µM, respectively.

Turning to `CCOc1c(F)cccc1-c1noc([C@@H]2CCCN2C(=O)c2ccccc2-n2nccn2)n1` [compound 288, {(S)-2-[3-(2-Ethoxy-3-fluoro-phenyl)-[1,2,4]oxadiazol-5-yl]-pyrrolidin-1-yl}-(2-[1,2,3]triazol-2-yl-phenyl)-methanone], the IC50 at orexin-1 (setting [1]) came to 0.666 µM; at human orexin-2 receptor it was 0.052 µM.

`CCOc1c(F)cccc1-c1noc([C@@H]2CCCN2C(=O)c2ccc(C)cc2-n2nccn2)n1` [compound 289, {(S)-2-[3-(2-Ethoxy-3-fluoro-phenyl)-[1,2,4]oxadiazol-5-yl]-pyrrolidin-1-yl}-(4-methyl-2-[1,2,3]triazol-2-yl-phenyl)-methanone]: the figures for the IC50 at orexin-1 (setting [1]) and at human orexin-2 receptor were 0.044 µM and 0.037 µM, respectively.

`CCOc1c(F)cccc1-c1noc([C@@H]2CCCN2C(=O)c2cc(C)c(C)cc2-n2nccn2)n1` [compound 290, (4,5-Dimethyl-2-[1,2,3]triazol-2-yl-phenyl)-{(S)-2-[3-(2-ethoxy-3-fluoro-phenyl)-[1,2,4]oxadiazol-5-yl]-pyrrolidin-1-yl}-methanone]: the IC50 on orexin-1 (setting [1]) was 0.009 µM; on human orexin-2 receptor it was 0.005 µM.
